According to a melting point compilation (Tetko et al.; mined from patent text by program, amines drawn as free bases though some values may be those of a salt):

| melting point [°C] | SMILES |
| --- | --- |
| 126 | O=C1C(F)N(c2ccc(Oc3ccccc3)cc2)C(=S)N1c1ccccc1 (stereo not drawn) |
| 185 | O=C1Nc2cc(Cl)ccc2N[C@H]1Cc1ccccc1 |
| 148 | O=[N+]([O-])CC1C2(CCCC1(c1ccccc1)c1ccccc1)OCCO2 (racemic) |
| 176 to 178 | O=c1[nH]c2ccc(S(=O)CCN3CCC(Cc4ccccc4)CC3)cc2o1 (stereo not drawn) |
| 130 to 132 | COC(=O)c1cc(-c2ccc(OC)cc2)nn(CC(=O)Nc2ccc(SC)cc2)c1=O |
| 203 to 205 | O=C(O)c1ccc(CSc2nnc(-c3ccc4c(c3)CCO4)o2)cc1 |
| 132 to 134 | Oc1ccc(-c2cccc(F)c2F)cc1 |
| 244 | CC(=O)NC(c1ccc(Cl)cc1)(c1ccc2c(c1)c(-c1nc(-c3ccccc3)cs1)cc(=O)n2C)c1cncn1C (stereo not drawn) |
| 120 to 122 | COc1ccc(-n2nc(N(C)C)cc2-c2ccc(OCCO)cc2)cc1 |
| 190 to 193 | CCOC(=O)c1cnc2c3ccccc3c(OC)cn2c1=O |
| 110 to 113 | CN(Cc1sc2c(=O)c(C(=O)NCc3ccc(Cl)cc3)cn(C)c2c1COCC[Si](C)(C)C)C[C@@H](O)c1ccco1 |
| 90 to 91 | COC(=O)c1cn(Cc2ccc(OCc3nc(-c4ccccc4)oc3C)cc2)nc1C(C)C |
| 147 to 148 | CCn1c(=O)n(Cc2ccccc2)c(=O)c2cc(C(=O)OCc3ccccc3)sc21 |
| 214 to 215 | Nc1nc2ccccc2c2c1ncn2CCCCNC(=O)c1ccnc2ccccc12 |
| 40 to 42 | COc1cc(C=CC(=O)OC2CC3CC(OC(=O)c4cc(OC)c(OC)c(OC)c4)CC2N3C)cc(OC)c1OC (stereo not drawn) |
| 120 to 122 | CC(=O)Oc1ccc(C(=O)NOCc2ccccc2)cc1 |
| 278 to 280 | CCOC(=O)c1c(-c2ccc(N3CCN(C)CC3)cc2)n(C)n(-c2ccc(C#N)cc2)c1=O |
| 145 to 147 | Cc1sc2c(c1C(=O)c1ccccc1)CCC2C(=O)O (stereo not drawn) |
| 187 to 191 | COc1cc(OCC2CC2)c(/C=C/C(=O)c2ccc(C(=O)O)cc2)cc1-c1cccs1 |
| 125 to 128 | CC(C)(C)OC(=O)Nc1ccc(-c2cccc(F)c2)cc1N |
| 125 to 126 | CN1CCC(c2c[nH]c3ccc(NC(=O)c4ccccc4F)nc23)CC1 |
| 178 | CC(C(=O)c1ccc(Br)cc1)n1ncn(-c2ccc(N3CCN(c4ccc(O[Si](C)(C)C(C)(C)C)cc4)CC3)cc2)c1=O (stereo not drawn) |
| 135 to 137 | CN(C)CCCn1c2c(c3cc(Br)ccc31)CCS(=O)(=O)CCC2 |
| 119 to 122 | O=C(Nc1ccc(F)cc1F)N(Cc1ccccc1)CC1(c2ccccc2)CCCC1 |
| 62 to 65 | N#Cc1ccc(Nc2nc(NCc3ccco3)nc(Nc3ccc(O)cc3)n2)cc1 |
| 145 | O=S(CCCCCOc1ccc(C2=C(c3ccccc3)CCCc3cc(O)ccc32)cc1)CCCC(F)(F)F (stereo not drawn) |
| 135 to 137 | COc1ccc(C)cc1NC(=O)Nc1ccc(C2=CCN(C(=O)Nc3ccc(OCC(O)CO)cc3C(F)(F)F)CC2)cc1 (stereo not drawn) |

| melting point [°C] | SMILES |
| --- | --- |
| 134 to 135 | N=C(Nc1cccc(Cl)c1)Nc1nc(-c2ccccc2)cs1 |
| 197 to 198 | CS(=O)(=O)c1ccc(-c2oc(CCC(=O)O)nc2-c2ccc(F)cc2)cc1 |
| 147 | Cc1cc(CNC(=O)c2nc3n(c(=O)c2OCc2ccccc2)CCN3c2ccccc2)ccc1F |
| 58 to 60 | CCOC(=O)C(Cc1ccc(OC)cc1)(C(=O)OCC)c1cc2cc(Br)ccc2s1 |
| 78 to 80 | CC(C)(O)C1CCC(CNC(=O)c2cccnc2Oc2ccc(F)cc2)CC1 (stereo not drawn) |
| 154 | CCCCCCCCCCCCCCCCCCOc1ccc(NC(=O)c2ccc(OC(C)=O)cc2)cc1 |
| 180 to 182 | Nc1sc2c(c1C(=O)c1ccc(I)c3ccccc13)CCCC2 |
| 90 to 91 | Cn1nc(-c2ccc(Cl)cc2)n(Cc2ccccc2)c1=O |
| 157 to 161 | CCOC(=O)CC(O)(CC)c1cc2n(c(=O)c1CO)Cc1cc3ccccc3nc1-2 (stereo not drawn) |
| 142 to 144 | CC(=O)OC1CSC(Oc2cc(-c3ccnc(F)c3)cnc2F)C(OC(C)=O)C1OC(C)=O (stereo not drawn) |
| 109 to 143 | O=C(O)[C@@H](Cc1ccccc1)Oc1c(Br)cc(-c2c3ccccc3c(C(F)(F)F)c3sc4ccccc4c23)cc1Br |
| 94 to 95 | Cc1onc(-c2ccc(Cl)cc2)c1CO |
| 128 to 130 | Cc1cc(C)c2cccc(OCc3c(Cl)ccc(S(=O)(=O)N4CCC[C@H]4C(=O)NCc4ccc(C=NN)cn4)c3Cl)c2n1 |
| 175 to 178 | CN(C)C(=O)C1Cc2c([nH]c3ccccc23)C(c2ccc3c(c2)OCO3)N1C(=O)C=Cc1ccccc1 (stereo not drawn) |
| 196 to 198 | O=C1c2ccccc2C(=O)N1CC(=O)N1c2ccccc2N(Cc2cccc(OCc3ccccc3)c2)C(=O)[C@H]2CCC[C@H]21 (relative stereo) |
| 60 to 63 | CN(C)CCCCCCc1nn(CC(N)=O)c(-c2ccccc2)c1-c1ccccc1 |
| 200 | CCCn1nc(C(C)(F)F)nc1Cc1ccc(-c2ccccc2-c2nnn[nH]2)nc1 |
| 58 to 61 | O=C(CCO)N1c2ccccc2CCC1CN1CCN(c2cccc3[nH]ccc23)CC1 (stereo not drawn) |
| 134 to 135 | COc1ccc(-c2cc(-c3ccccc3)[nH]c2C(=O)NCc2ccc(C(=O)Nc3ccccc3S)cc2)cc1 |
| 135 to 140 | CCOC(=O)c1cc(C(=O)c2ccccc2Cl)c(-n2c(C)nnc2CNC(=O)c2cc3ccccc3[nH]2)s1 |
| 148 to 149 | COC(=O)c1cccc(-c2cccc3c2nc(N(C)c2cccc(C(F)(F)F)c2)n3C)c1 |
| 120 to 121 | O=C1CCCCCC1C(C[N+](=O)[O-])c1ccc(OCc2ccccc2)cc1 (racemic) |
| 70.7 to 71.3 | CCOC(=O)/C=C/c1ccc(OCCOC)cc1Oc1ncc(Cl)cc1Cl |
| 145 to 147 | Cc1ccc(C(=O)NC(=S)NCc2ccccc2C(N)=O)cc1 |
| 217 to 220 | Clc1nc2ccccc2c2c1ncn2Cc1ccccn1 |
| 54 to 55 | O=C1c2ccccc2CCn2cccc21 |

Further lines, the compound ahead of its results:

| SMILES | melting point [°C] |
| --- | --- |
| CCc1nc2c(N)nc3cccnc3c2n1NCCCNS(C)(=O)=O | 176 to 178 |
| CCCCc1nn2ccccc2c1Cc1ccc(Br)cc1 | < 50 |
| C=CCN(C)C(=O)/C=C/CSc1nc(N)cc(Cl)n1 | 140 to 142 |
| CCOC(=O)c1c(Cl)c2cnccc2[nH]c1=O | 219 |
| CCCCCCCCCCCCCCCCCCOc1ccc(C(=O)OCC)cc1[N+](=O)[O-] | 48 to 56 |
| Cc1ccc(-c2ssc(=S)c2C)nn1 | 168 |
| OC(CCCl)c1ccccc1 (stereo not drawn) | 56 to 57 |
| CC1CC2C3CCC4=CC(=O)C=CC4(C)C3=CCC2(C)C1C(=O)CN1CCN(c2cc(NCC(C)(C)C)nc(NC(C)(C)C)n2)CC1 (stereo not drawn) | 155 to 160 |
| CC(C)OP(=O)(OC(C)C)c1nc(N)nc(P(=O)(OC(C)C)OC(C)C)n1 | 123 to 124 |
| CN1CCC(c2c[nH]c3ccc(O[Si](C)(C)C(C)(C)C)cc23)CC1 | 191 to 195 |
| COCCc1nc2c(N)nc3ccccc3c2n1CC1(O)CCCCC1 | 189 to 191 |
| CS(=O)(=O)c1ccc(C(CC2CCCC2)C(=O)Nc2nccs2)cc1 (stereo not drawn) | 61 to 63 |
| COc1cc(Cc2c(N)nc(N)nc2Cl)cc(OC)c1N | 222 to 224 |
| Cc1c(-c2ccncc2)nc2n(c1=O)CCCN2 | 242 to 243 |
| COC1=NS(=O)N=C1NCCCCC#CCN1CCCCC1 (stereo not drawn) | 134 to 136 |
| N=C(O)c1cc(C(O)=NCCS)c(C(=O)O)cc1C(=O)O | 300 |
| COc1ccc2c(c1)N=C(N1CCN(C)CC1)c1cccc3c1N2CC3 | 152 to 155 |
| CCOC(=O)C(=O)c1cn(CCN2CCOCC2)c2ccccc12 | 99 to 100 |
| O=C(Nc1ccc(-n2nc(C(F)(F)F)cc2OC(F)F)cc1)c1ccncc1F | 135 to 136 |
| COC(=O)c1cc([N+](=O)[O-])c[nH]1 | 196 to 197 |
| O=[N+]([O-])c1ccc(-c2ncnn2-c2ccc(Br)cc2)cc1 | 142 to 144 |
| Cc1nnc(-c2ccnc(Nc3ccccn3)c2)o1 | 196 to 197 |
| CC(=O)c1ccc(S(=O)(=O)N2CCN(C)CC2)cc1 | 118 to 119 |

| SMILES | melting point [°C] |
| --- | --- |
| O=C1c2c(Br)cccc2-n2cnc(-c3noc(CCl)n3)c2[C@@H]2CCN12 | 210 to 211 |
| NC(C(=O)O)c1ccc(C(=O)O)cc1F (stereo not drawn) | 250 to 255 |
| Fc1cccc(C2(N3CCC3)CCC3(CC2)NCCc2c3[nH]c3ccccc23)c1 (stereo not drawn) | 186 to 188 |
| CN1Cc2c(-c3noc(CCl)n3)ncn2-c2ccc(Cl)cc2C1=O | 229 |
| O=C(NCCc1ncc(Cl)cc1Cl)c1ccccc1C(F)(F)F | 118 |
| COC(=O)NNC(=O)C(F)(F)F | 105 |
| C=CCNc1c(NC(CC)CC)cc(C)nc1Oc1c(C)cc(C)cc1C | 86 to 88 |
| CCOC(=O)c1c(C)nc2c(nc(C)n2CC)c1OCC | 62 to 65 |
| COc1cc2ncnc(N3CCCCc4ccc(Br)cc43)c2cc1OC | 209 to 217 |
| COc1cccc(CC[C@H]2CNCCN2)c1 | 53 to 57 |
| Cc1nc(N)sc1S(=O)(=O)N(C)CCO | 118 |
| Cc1sc(-c2ccc(C(F)(F)F)cc2)nc1O | 232 to 233 |
| NS(=O)(=O)OCCOc1ccc(O)cc1 | 92 to 93 |
| Cc1cc2ccccn2c1 | 57 to 58 |
| COc1ccc(-c2c(C(C)=O)c(Cn3cncn3)nc3cc(OC)c(OC)cc23)cc1OC | 180 to 181 |
| CCCCCc1ccc(OC(=O)N2CCC(OC(=O)NCCCCCCOC(=O)N3CCC4(CCCC4)CC3)CC2)cc1 | 100 to 102 |
| COc1cc2cn[nH]c(=O)c2cc1OC | 254 to 256 |
| NC(=O)CC12CCCCC1CCc1ccccc12 (stereo not drawn) | 177 |
| CCCCCCCCCCCCCCCCSCC(CN=[N+]=[N-])NC(=O)OC(C)(C)C (stereo not drawn) | 63 to 64 |
| OCCN=Cc1ccc(Br)cc1 | 79 to 81 |
| Cc1cc2c(cc1C)N(C)c1cscc1C(=O)N2 | 260 to 262 |
| CCOC(=O)c1cnn(-c2ccc(Cl)cc2)c1C | 55 to 56 |
